Earlier results in US20190289847A1, “SUSTAINED RELEASE FIBERS” (INVISTA TEXTILES (U.K.) LIMITED, priority 2016, published 2019).

Assays:
[1] = system: dust mites
[2] = system: fleas and ticks; conditions: literature

O=C(Oc1ccccc1)c1ccccc1O [phenyl salicylate]
duration of efficacy ([1]; applied in a typical manner, i.e. topical application, at best): 3-4 months | effectiveness against dust mites ([1]; literature): effective | effectiveness against fleas and ticks [2]: effective
